The results in this text go back to patent publication US20260242416A1, “ANTIMICROBIAL PEPTIDES” (priority 2023, published 2026).

Structures are written as SMILES. Values after ≈ are worked out from the molar mass of the structure shown. Where a SMILES comes first, the peptide text is derived from it.

One assay deals with E. coli ATCC 25922. It counts as cell-based, Escherichia coli. Conditions: ATCC 25922. A digest of the protocol: (§1)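 MIC taken as lowest peptide level showing no visible growth after 20-24 h at 37° C. Twofold series 128-0.5 μg/mL in Mueller-Hinton broth, polypropylene plates, final inoculum 2-8×10^5 cfu/mL, per CLSI with cationic-peptide adaptations.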
Assay [1] relates to Salmonella enterica serovar Enteritidis (human clinical isolate). It counts as cell-based. Particulars: serovar Enteritidis (human clinical isolate). In outline: as §1
For a further assay, the system named is S. aureus ATCC 29213. It counts as cell-based, Staphylococcus aureus. Conditions: ATCC 29213. In outline:
as §1

The subject of assay [2] is E. coli ATCC 25922, Salmonella Enteritidis, S. aureus ATCC 29213. Kind of assay: Broth microdilution, panel result (at least one / all strains), Example 2. It counts as cell-based. Particulars: for inhibitory activity (asterisk): Table 14, against at least one of E. coli ATCC 25922, Salmonella Enteritidis, S. aureus ATCC 29213. Further details: key to inhibitory activity (asterisk): *Indicates inhibitory activity. In outline: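 CLSI broth microdilution adapted for cationic peptides, in MHB with a final inoculum of 2-8×10^5 cfu/mL in polypropylene plates. Peptides were serially diluted from 128 down to 0.5 μg/mL and incubated 20-24 h at 37° C. MIC is the lowest concentration with no visible growth.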

Consider `CC[C@H](C)[C@H](NC(=O)CN)C(=O)N[C@@H](CC(C)C)C(=O)N[C@@H](CO)C(=O)NCC(=O)N[C@@H](CC(C)C)C(=O)N[C@@H](CC(C)C)C(=O)NCC(=O)N[C@@H](C)C(=O)NCC(=O)N[C@@H](CCCCN)C(=O)N[C@@H](CCCCN)C(=O)N[C@H](C(=O)N[C@H](C(=O)N[C@@H](CS)C(=O)O)C(C)C)[C@@H](C)CC` [OdMa4, GILSGLLGAGKKIVC] (H-GILSGLLGAGKKIVC-OH; N-terminus and C-terminus assumed), for which, in the assay on E. coli ATCC 25922, the “MIC (ug/mL) E. coli” value was 8 to 16 µg/mL. Moreover, in assay [1], the “MIC (ug/mL) S. Enteritidis” value amounted to 32 µg/mL (≈ 22.4 µM). For the same molecule, the “MIC (ug/mL) S. aureus” value in the assay with S. aureus ATCC 29213 is more than 128 µg/mL. The “inhibitory activity (asterisk)” value in assay [2] is reported as 62.* GILSGLLGAGKKIVC. Besides, the “spectrum of antimicrobial activity” value in assay [2] (panel of E. coli, Salmonella Enteritidis, S. aureus, up to 128 μg/mL) is “selective antimicrobial activity against the Gram-negative bacteria tested”.
Take `CC[C@H](C)[C@H](NC(=O)CN)C(=O)N[C@@H](CC(C)C)C(=O)N[C@@H](CO)C(=O)NCC(=O)N[C@@H](CC(C)C)C(=O)N[C@@H](CC(C)C)C(=O)NCC(=O)N[C@@H](C)C(=O)NCC(=O)N[C@@H](CCCCN)C(=O)N[C@@H](CCCCN)C(=O)N[C@H](C(=O)N[C@H](C(=O)N[C@@H](CS)C(=O)NCC(=O)N[C@@H](CC(C)C)C(=O)N[C@@H](CO)C(=O)NCC(=O)N[C@@H](CC(C)C)C(=O)N[C@@H](CS)C(=O)O)C(C)C)[C@@H](C)CC` [OdMa5] (H-GILSGLLGAGKKIVCGLSGLC-OH; N-terminus and C-terminus assumed): in the assay on E. coli ATCC 25922, the “MIC (ug/mL) E. coli” value lay within 8 to 16 µg/mL. Also, the “MIC (ug/mL) S. Enteritidis” value in assay [1] lay within 64 to 128 µg/mL. Also, in the assay on S. aureus ATCC 29213, the “MIC (ug/mL) S. aureus” value is 8 to 16 µg/mL. Moreover, in assay [2], the “inhibitory activity (asterisk)” value is 1091.* GILSGLLGAGKKIVCGLSGLC.
As to `CC[C@H](C)[C@H](NC(=O)[C@H](CCCCN)NC(=O)[C@H](CCCCN)NC(=O)CNC(=O)[C@@H](NC(=O)CNC(=O)[C@H](CC(C)C)NC(=O)[C@@H](NC(=O)CNC(=O)[C@H](CO)NC(=O)[C@H](CC(C)C)NC(=O)[C@H](CC(C)C)NC(=O)CN)C(C)C)C(C)C)C(=O)N[C@H](C(=O)N[C@@H](CS)C(=O)NCC(=O)N[C@@H](CC(C)C)C(=O)N[C@@H](CO)C(=O)NCC(=O)N[C@@H](CC(C)C)C(=O)N[C@@H](CS)C(=O)O)C(C)C` [OdMa6] (H-GLLSGVLGVGKKIVCGLSGLC-OH; N-terminus and C-terminus assumed), in the assay with E. coli ATCC 25922, the “MIC (ug/mL) E. coli” value was 8 to 16 µg/mL. Further, the “MIC (ug/mL) S. Enteritidis” value in assay [1] was found to be 128 µg/mL (≈ 64.9 µM). The “MIC (ug/mL) S. aureus” value in the assay on S. aureus ATCC 29213 lay within 16 to 32 µg/mL. Further, the “inhibitory activity (asterisk)” value in assay [2] is 1092.* GLLSGVLGVGKKIVCGLSGLC.
For `CC(C)C[C@H](NC(=O)CNC(=O)[C@H](CO)NC(=O)[C@H](CC(C)C)NC(=O)CNC(=O)[C@H](CS)NC(=O)[C@H](CC(C)C)NC(=O)[C@@H](NC(=O)[C@H](CCCCN)NC(=O)[C@H](CCCCN)NC(=O)CNC(=O)[C@@H](NC(=O)CNC(=O)[C@H](CC(C)C)NC(=O)[C@@H](NC(=O)CNC(=O)[C@H](CO)NC(=O)[C@H](CC(C)C)NC(=O)[C@H](CC(C)C)NC(=O)CN)C(C)C)C(C)C)C(C)C)C(=O)N[C@@H](CS)C(=O)O` [OdMa7] (H-GLLSGVLGVGKKVLCGLSGLC-OH; N-terminus and C-terminus assumed), the “MIC (ug/mL) E. coli” value against E. coli ATCC 25922 was in the range of 8 to 16 µg/mL. For the same molecule, the “MIC (ug/mL) S. Enteritidis” value in assay [1] turned out to be 128 µg/mL (≈ 64.9 µM). Further, in the assay with S. aureus ATCC 29213, the “MIC (ug/mL) S. aureus” value is 16 to 32 µg/mL. Besides, the “inhibitory activity (asterisk)” value in assay [2] was 1093.* GLLSGVLGVGKKVLCGLSGLC.
The like results for `CC[C@H](C)[C@H](NC(=O)CNC(=O)[C@H](CO)NC(=O)[C@@H](NC(=O)[C@H](CC(C)C)NC(=O)CN)[C@@H](C)CC)C(=O)N[C@@H](CC(C)C)C(=O)NCC(=O)N[C@@H](C)C(=O)NCC(=O)N[C@@H](CCCCN)C(=O)N[C@@H](CCCCN)C(=O)N[C@H](C(=O)N[C@@H](CC(C)C)C(=O)N[C@@H](CS)C(=O)O)C(C)C` [OdMa9, GLISGILGAGKKVLC] (H-GLISGILGAGKKVLC-OH; N-terminus and C-terminus assumed) were, in that order, 64 to 128 µg/mL, 128 µg/mL (≈ 89.6 µM), more than 128 µg/mL and 68.* GLISGILGAGKKVLC.
For `CC[C@H](C)[C@H](NC(=O)CNC(=O)[C@H](CO)NC(=O)[C@@H](NC(=O)[C@H](CC(C)C)NC(=O)CN)[C@@H](C)CC)C(=O)N[C@@H](CC(C)C)C(=O)NCC(=O)N[C@@H](C)C(=O)NCC(=O)N[C@@H](CCCCN)C(=O)N[C@@H](CCCCN)C(=O)N[C@H](C(=O)N[C@@H](CC(C)C)C(=O)N[C@@H](CS)C(=O)NCC(=O)N[C@@H](CC(C)C)C(=O)N[C@@H](CO)C(=O)NCC(=O)N[C@@H](CC(C)C)C(=O)N[C@@H](CS)C(=O)O)C(C)C` [OdMa10] (H-GLISGILGAGKKVLCGLSGLC-OH; N-terminus and C-terminus assumed), in that order: 16 to 32 µg/mL, more than 128 µg/mL, 64 to 128 µg/mL and 1094.* GLISGILGAGKKVLCGLSGLC.
The like results for `CC[C@H](C)[C@H](NC(=O)CN)C(=O)N[C@@H](CC(C)C)C(=O)N[C@@H](CO)C(=O)NCC(=O)N[C@@H](CC(C)C)C(=O)N[C@@H](CC(C)C)C(=O)NCC(=O)N[C@@H](C)C(=O)NCC(=O)N[C@@H](CCCCN)C(=O)N[C@@H](CCCCN)C(=O)N[C@@H](CC(C)C)C(=O)N[C@@H](C)C(=O)N[C@@H](CS)C(=O)NCC(=O)N[C@@H](CC(C)C)C(=O)N[C@H](C(=O)NCC(=O)N[C@@H](CC(C)C)C(=O)N[C@@H](CS)C(=O)O)[C@@H](C)CC` [OdTo1] (H-GILSGLLGAGKKLACGLIGLC-OH; N-terminus and C-terminus assumed) were, in that order, 8 µg/mL (≈ 4.09 µM), 32 to 64 µg/mL, 8 to 16 µg/mL and 153.* GILSGLLGAGKKLACGLIGLC.
`CC[C@H](C)[C@H](NC(=O)CN)C(=O)N[C@@H](Cc1ccccc1)C(=O)NCC(=O)NCC(=O)N[C@@H](Cc1c[nH]cn1)C(=O)N[C@@H](CC(C)C)C(=O)N[C@@H](CCCCN)C(=O)N[C@H](C(=O)NCC(=O)N[C@@H](CCCCN)C(=O)N[C@@H](CCCCN)C(=O)N[C@H](C(=O)N[C@@H](C)C(=O)N[C@@H](CS)C(=O)NCC(=O)N[C@@H](CC(C)C)C(=O)N[C@@H](CO)C(=O)NCC(=O)N[C@@H](CC(C)C)C(=O)N[C@@H](CS)C(=O)O)[C@@H](C)CC)C(C)C` [OdTo2] (H-GIFGGHLKVGKKIACGLSGLC-OH; N-terminus and C-terminus assumed): the “MIC (ug/mL) E. coli” value in the assay on E. coli ATCC 25922 turned out to be 32 µg/mL (≈ 15.5 µM). In addition, the “MIC (ug/mL) S. Enteritidis” value in assay [1] is more than 128 µg/mL. The “MIC (ug/mL) S. aureus” value with S. aureus ATCC 29213 is more than 128 µg/mL. For the same molecule, in assay [2], the “inhibitory activity (asterisk)” value is 139.* GIFGGHLKVGKKIACGLSGLC.
Turning to `CC[C@H](C)[C@H](NC(=O)CN)C(=O)N[C@@H](Cc1ccccc1)C(=O)NCC(=O)NCC(=O)N[C@@H](CC(C)C)C(=O)N[C@@H](CC(C)C)C(=O)N[C@@H](CCCCN)C(=O)N[C@@H](CCC(=O)O)C(=O)NCC(=O)N[C@@H](CCCCN)C(=O)N[C@@H](CCCCN)C(=O)N[C@H](C(=O)N[C@@H](C)C(=O)N[C@@H](CS)C(=O)NCC(=O)N[C@@H](CC(C)C)C(=O)N[C@@H](CO)C(=O)NCC(=O)N[C@@H](CC(C)C)C(=O)N[C@@H](CS)C(=O)O)[C@@H](C)CC` [OdTo3] (H-GIFGGLLKEGKKIACGLSGLC-OH; N-terminus and C-terminus assumed), the “MIC (ug/mL) E. coli” value against E. coli ATCC 25922 turned out to be 32 µg/mL (≈ 15.5 µM). Moreover, the “MIC (ug/mL) S. Enteritidis” value in assay [1] was more than 128 µg/mL. Also, the “MIC (ug/mL) S. aureus” value with S. aureus ATCC 29213 was more than 128 µg/mL. In addition, the “inhibitory activity (asterisk)” value in assay [2] is 141.* GIFGGLLKEGKKIACGLSGLC.
With `CC(C)C[C@H](NC(=O)CNC(=O)[C@H](CO)NC(=O)[C@@H](NC(=O)[C@@H](NC(=O)[C@H](CS)NC(=O)[C@H](CC(C)C)NC(=O)[C@@H](NC(=O)[C@H](CCCCN)NC(=O)[C@H](CCCCN)NC(=O)CNC(=O)[C@@H](NC(=O)CNC(=O)[C@H](CC(C)C)NC(=O)[C@@H](NC(=O)[C@H](CCCCN)NC(=O)CNC(=O)[C@H](CC(C)C)NC(=O)[C@H](CC(C)C)NC(=O)CN)C(C)C)C(C)C)C(C)C)C(C)C)C(C)C)C(=O)N[C@@H](CS)C(=O)O` [PeNi2] (H-GLLGKVLGVGKKVLCVVSGLC-OH; N-terminus and C-terminus assumed), the “MIC (ug/mL) E. coli” value in the assay on E. coli ATCC 25922 was determined as 4 µg/mL (≈ 1.96 µM). Moreover, the “MIC (ug/mL) S. Enteritidis” value in assay [1] lay within 16 to 32 µg/mL. The “MIC (ug/mL) S. aureus” value against S. aureus ATCC 29213 amounted to 4 µg/mL (≈ 1.96 µM). Besides, the “inhibitory activity (asterisk)” value in assay [2] was 395.* GLLGKVLGVGKKVLCVVSGLC.
As for `CC[C@H](C)[C@H](NC(=O)CN)C(=O)N[C@@H](Cc1ccccc1)C(=O)N[C@@H](CO)C(=O)N[C@@H](CC(C)C)C(=O)N[C@H](C(=O)N[C@@H](CCCCN)C(=O)NCC(=O)N[C@@H](C)C(=O)N[C@@H](C)C(=O)N[C@@H](CCCCN)C(=O)N[C@H](C(=O)N[C@H](C(=O)N[C@@H](C)C(=O)N[C@@H](CCCCN)C(=O)NCC(=O)N[C@@H](CC(C)C)C(=O)NCC(=O)O)C(C)C)C(C)C)[C@@H](C)CC` [PeNi3, GIFSLIKGAAKVVAKGLG] (H-GIFSLIKGAAKVVAKGLG-OH; N-terminus and C-terminus assumed), in the assay on E. coli ATCC 25922, the “MIC (ug/mL) E. coli” value fell in the range of 16 to 32 µg/mL. Also, the “MIC (ug/mL) S. Enteritidis” value in assay [1] lay within 64 to 128 µg/mL. For the same molecule, the “MIC (ug/mL) S. aureus” value against S. aureus ATCC 29213 was 64 to 128 µg/mL. For the same molecule, the “inhibitory activity (asterisk)” value in assay [2] is given as 1096.* GIFSLIKGAAKVVAKGLG.
